Laboratory results reported in patent publication US9765037B2, “Compositions and methods for treating toxoplasmosis, cryptosporidiosis, and other apicomplexan protozoan related diseases” (University of Washington Through its Center for …, priority 2010, dated 2017).
≈ marks a conversion by molar mass, not a printed value. Where two headings read alike, the source gives them in different places.

Columns and labels:
[1] = Solubility in buffers of various pH; type: physicochemical; details: buffer
[2] = tested on: human promyelocytic leukemia (HL-60); experiment: Growth inhibition of human cell line HL-60
[3] = tested on: human lymphocyte (CRL8155); experiment: Growth inhibition of human cell line CRL8155
PfCDPK1 = PfCDPK1 (Plasmodium falciparum (isolate 3D7), UniProt P62344); experiment: biochemical
PfCDPK4 = PfCDPK4 (Plasmodium falciparum (isolate 3D7), UniProt Q8IBS5); experiment: biochemical
[4] = tested on: colorectal carcinoma (HC 2998); experiment: Growth inhibition of human cell line HC 2998
glioma derived (SF539) = experiment: Growth inhibition of human cell line SF539
CpCDPK1 = CpCDPK1 (Cryptosporidium parvum (strain Iowa II), UniProt A3FQ16); experiment: biochemical; type: biochemical
TgCDPK1 = TgCDPK1 (Toxoplasma gondii, UniProt Q9BJF5); type: biochemical
[5] = Blood levels after oral gavage dosing of mice (LC-MS); details: mouse, in vivo, po
[6] = pH 6.5, aqueous buffer, read-out: Experimental Solubility pH 6.5
[7] = Table 8, read-out: IC50 (μM) CpCDPK1

Chain of CpCDPK1 (A3FQ16 1-538): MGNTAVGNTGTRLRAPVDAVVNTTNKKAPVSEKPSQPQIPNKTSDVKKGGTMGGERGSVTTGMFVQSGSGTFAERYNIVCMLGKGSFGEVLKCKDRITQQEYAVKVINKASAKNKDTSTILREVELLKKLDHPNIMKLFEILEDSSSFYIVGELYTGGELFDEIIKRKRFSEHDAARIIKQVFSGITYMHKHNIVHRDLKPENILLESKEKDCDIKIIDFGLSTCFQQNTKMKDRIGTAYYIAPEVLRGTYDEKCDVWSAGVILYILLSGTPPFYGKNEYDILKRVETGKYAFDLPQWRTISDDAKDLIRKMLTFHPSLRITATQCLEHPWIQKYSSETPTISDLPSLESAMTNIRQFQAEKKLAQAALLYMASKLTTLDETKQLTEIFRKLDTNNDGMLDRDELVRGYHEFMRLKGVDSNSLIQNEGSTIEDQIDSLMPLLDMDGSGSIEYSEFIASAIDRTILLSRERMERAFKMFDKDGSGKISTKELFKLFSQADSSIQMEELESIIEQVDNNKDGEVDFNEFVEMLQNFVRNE
Chain of TgCDPK1 (Q9BJF5 1-507): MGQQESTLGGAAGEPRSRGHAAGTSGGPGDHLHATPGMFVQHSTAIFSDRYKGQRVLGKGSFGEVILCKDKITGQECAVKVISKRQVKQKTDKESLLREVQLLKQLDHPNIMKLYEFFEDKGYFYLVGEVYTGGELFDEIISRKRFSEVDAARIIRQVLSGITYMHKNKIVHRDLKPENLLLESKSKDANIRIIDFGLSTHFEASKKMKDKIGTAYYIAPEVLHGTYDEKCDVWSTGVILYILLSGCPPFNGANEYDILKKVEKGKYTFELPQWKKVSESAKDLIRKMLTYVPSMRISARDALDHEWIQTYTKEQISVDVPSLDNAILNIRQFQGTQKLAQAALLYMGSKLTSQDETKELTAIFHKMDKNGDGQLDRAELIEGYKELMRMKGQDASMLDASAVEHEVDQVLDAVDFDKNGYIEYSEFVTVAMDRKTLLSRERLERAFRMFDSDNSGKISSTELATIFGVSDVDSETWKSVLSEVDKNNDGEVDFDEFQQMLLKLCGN

SMILES | solubility [1, 6] [µM] | Cell Toxicity HL60, % at 10 μM [2] | Cell Toxicity HL60, % at 30 μM [2] | Cell Toxicity CRL8155, % at 10 μM [3] | Cell Toxicity CRL8155, % at 30 μM [3] [% at 30 μM] | EC50 (PfCDPK1) [nM] | EC50 (PfCDPK4) [nM] | other results
CC(C)(C)c1nc(-c2ccc3ccccc3c2)c2c(N)nccn12 [Compound 84] | 26 (≈ 8.23 µg/mL) | <30% at 10 μM | 50% at 30 μM | <30% at 10 μM | 48 | 61.3 | 55.1 | –
CCN1CCC(Cn2nc(Cc3cccc4ccccc34)c3c(N)ncnc32)CC1 [Compound 5n, 1-((1-ethylpiperidin-4-yl)methyl)-3-(naphthalen-1-ylmethyl)-1H-pyrazolo[3,4-d]pyrimidin-4-amine] | – | <30% at 10 μM | – | <30% at 10 μM | – | – | – | Cell Toxicity HCC2998, % at 10 μM [4]: <30% at 10 μM; Cell Toxicity SF539, % at 10 μM (glioma derived (SF539)): <30% at 10 μM
CC(C)n1nc(-c2ccc3ccccc3c2)c2c(N)ncnc21 [Compound 7p, 1-isopropyl-3-(naphthalen-2-yl)-1H-pyrazolo[3,4-d]pyrimidin-4-amine] | – | 35% at 10 μM | – | – | – | 380 | 142 | Cell Toxicity HL60, % at 25 μM [2]: 50% at 25 μM;; GI50 ([2]; read-out: GI50 (μM) HL60, human cell line HL60): > 10 µM; Cell Toxicity CRL8155, % at 25 μM [3]: 46% at 25 μM; GI50 ([3]; read-out: GI50 (μM) CRL8155, human cell line CRL8155): > 10 µM; Cell Toxicity HCC2998, % at 25 μM [4]: <30% at 25 μM; GI50 ([4]; read-out: GI50 (μM) HCC2998, human cell line HCC2998): ~10 µM; Cell Toxicity SF539, % at 10 μM (glioma derived (SF539)): 54% at 10 μM; Cell Toxicity SF539, % at 25 μM (glioma derived (SF539)): 84% at 25 μM;; GI50 (glioma derived (SF539); read-out: GI50 (μM) SF539, human cell line SF539): > 10 µM
CC(C)n1nc(-c2ccc(Cl)c(Cl)c2)c2c(N)ncnc21 [Compound 7c, 3-(3,4-dichlorophenyl)-1-isopropyl-1H-pyrazolo[3,4-d]pyrimidin-4-amine] | – | – | – | – | – | – | – | Cell Toxicity HL60, % at 25 μM [2]: 51% at 25 μM; Cell Toxicity CRL8155, % at 25 μM [3]: 54% at 25 μM; Cell Toxicity HCC2998, % at 25 μM [4]: <30% at 25 μM; Cell Toxicity SF539, % at 25 μM (glioma derived (SF539)): 31% at 25 μM
CC(C)(C)n1nc(-c2ccc3ccccc3c2)c2c(N)ncnc21 [Compound 2, 1-tert-butyl-3-(naphthalen-2-yl)-1H-pyrazolo[3,4-d]pyrimidin-4-amine] | 2.4 (≈ 0.762 µg/mL) | – | <30% at 30 μM | – | <30 | 1250 | 480 | solubility ([1]; aqueous buffer, pH 2.0, read-out: Experimental Solubility pH 2.0): 43 µM (≈ 13.6 µg/mL); solubility ([1]; pH 7.4, aqueous buffer, read-out: Experimental Solubility pH 7.4): 1.5 µM (≈ 0.476 µg/mL); Cell Toxicity HL60, % at 25 μM [2]: <30% at 25 μM;; Cell Toxicity CRL8155, % at 25 μM [3]: 37% at 25 μM;; Cell Toxicity HCC2998, % at 25 μM [4]: <30% at 25 μM; Cell Toxicity SF539, % at 25 μM (glioma derived (SF539)): <30% at 25 μM
CC(C)n1nc(-c2ccc(Cl)cc2)c2c(N)ncnc21 [Compound 7a, 3-(4-chlorophenyl)-1-isopropyl-1H-pyrazolo[3,4-d]pyrimidin-4-amine] | 45 (≈ 12.9 µg/mL) | – | – | – | – | – | – | IC50 (CpCDPK1; [7]): 0.216 µM; IC50 (CpCDPK1; read-out: CpCDPK1 IC50): 0.22 µM; IC50 (TgCDPK1; read-out: IC50 (μM) TgCDPK1): 0.018 µM
Cn1ccc2cc(-c3nc(C(C)(C)C)n4ccnc(N)c34)ccc21 [Compound 70, 3-tert-butyl-1-(1-methyl-1H-indol-5-yl)imidazo[1,5-a]pyrazin-8-amine] | 5 (≈ 1.6 µg/mL) | 40% at 10 μM | – | <30% at 10 μM | – | 53.8 | 83.4 | –
CC(C)COc1ccc2cc(-c3nn(CC4CCN(C)CC4)c4ncnc(N)c34)ccc2c1 [Compound 124] | 41 (≈ 18.2 µg/mL) | – | – | – | – | 119 | 101 | AUC [5]: 6.65 µM·h; Cmax [5]: 1840 nM; Tmax [5]: 3 h
Nc1ncnc2c1c(Cc1cccc3ccccc13)nn2CCC1CCNCC1 [Compound 5i, 3-(naphthalen-1-ylmethyl)-1-(2-(piperidin-4-yl)ethyl)-1H-pyrazolo[3,4-d]pyrimidin-4-amine] | – | <30% at 10 μM; | <30% at 30 μM | <30% at 10 μM; | <30 | – | 603 | Cell Toxicity HCC2998, % at 10 μM [4]: <30% at 10 μM; Cell Toxicity SF539, % at 10 μM (glioma derived (SF539)): <30% at 10 μM; IC50 (CpCDPK1; read-out: CpCDPK1 IC50): 0.034 µM; IC50 (TgCDPK1; read-out: TgCDPK1 IC50): 0.052 µM
COc1ccc2cc(-c3nc(C(C)(C)C)n4ccnc(N)c34)ccc2c1 [Compound 71, 3-tert-butyl-1-(6-methoxynaphthalen-2-yl)imidazo[1,5-a]pyrazin-8-amine] | 9 (≈ 3.12 µg/mL) | <30% at 10 μM | – | <30% at 10 μM | – | 67.6 | 65.2 | –
Nc1ncnc2c1c(-c1ccc3cc(O)ccc3c1)nn2CC1CCNCC1 [Compound 119] | 50 (≈ 18.7 µg/mL) | <30% at 10 μM; | <30% at 30 μM | <30% at 10 μM | <30 | 76.9 | 7.3 | –
CC(C)n1nc(-c2cnc3ccccc3c2)c2c(N)ncnc21 [Compound 7t, 1-isopropyl-3-(quinolin-3-yl)-1H-pyrazolo[3,4-d]pyrimidin-4-amine] | – | <30% at 10 μM | – | <30% at 10 μM | – | 1360 | 169 | Cell Toxicity HCC2998, % at 10 μM [4]: <30% at 10 μM; Cell Toxicity SF539, % at 10 μM (glioma derived (SF539)): <30% at 10 μM
Nc1ncnc2c1c(Cc1cccc3ccccc13)nn2C1CCNCC1 [Compound 5g, 3-(naphthalen-1-ylmethyl)-1-(piperidin-4-yl)-1H-pyrazolo[3,4-d]pyrimidin-4-amine] | – | <30% at 10 μM | – | <30% at 10 μM | – | – | – | Cell Toxicity HCC2998, % at 10 μM [4]: <30% at 10 μM; Cell Toxicity SF539, % at 10 μM (glioma derived (SF539)): <30% at 10 μM; IC50 (CpCDPK1; read-out: IC50 (μM) CpCDPK1): 0.056 µM; IC50 (TgCDPK1; read-out: TgCDPK1 IC50): 0.059 µM
Nc1ncnc2c1c(-c1ccc3ccccc3c1)nn2CC1CCNCC1 [Compound 147, 3-(naphthalen-2-yl)-1-(piperidin-4-ylmethyl)-1H-pyrazolo[3,4-d]pyrimidin-4-amine] | 79 (≈ 28.3 µg/mL) | 33% at 10 μM | 60% at 30 μM; | – | <30 | 66.8 | 17.2 | –
CCOc1ccc2cc(-c3nc(C(C)C)n4ccnc(N)c34)ccc2c1 [Compound 10, 1-(6-ethoxynaphthalen-2-yl)-3-isopropylimidazo[1,5-a]pyrazin-8-amine] | 29 (≈ 10 µg/mL) | – | – | – | – | 380 | 328 | AUC [5]: 112 µM·h; Cmax [5]: 26000 nM; Tmax [5]: 2.5 h; IC50 (CpCDPK1; [7]): 0.0336 µM; IC50 (TgCDPK1; read-out: IC50 (μM) TgCDPK1): 0.078 µM
Cc1cccc2[nH]c(-c3nc(C(C)(C)C)n4ccnc(N)c34)cc12 [Compound 83] | 36 (≈ 11.5 µg/mL) | 37% at 10 μM | 38% at 30 μM | <30% at 10 μM | 46 | 1080 | 371 | –
Cn1ncc2cc(-c3nn(CC4CCNCC4)c4ncnc(N)c34)ccc21 [Compound 121] | 43 (≈ 15.6 µg/mL) | <30% at 10 μM | – | <30% at 10 μM | – | 702 | 146 | AUC [5]: 0.445 µM·h; Cmax [5]: 190 nM; Tmax [5]: 1.5 h
CS(=O)(=O)N1CCC(n2nc(Cc3cccc4ccccc34)c3c(N)ncnc32)CC1 [Compound 5p, 1-(1-(methylsulfonyl)piperidin-4-yl)-3-(naphthalen-1-ylmethyl)-1H-pyrazolo[3,4-d]pyrimidin-4-amine] | – | – | – | – | – | – | – | Cell Toxicity HL60, % at 25 μM [2]: <30% at 25 μM; Cell Toxicity CRL8155, % at 25 μM [3]: <30% at 25 μM; Cell Toxicity HCC2998, % at 25 μM [4]: <30% at 25 μM; Cell Toxicity SF539, % at 25 μM (glioma derived (SF539)): <30% at 25 μM
